Patent US20230248735A1, “COMPOSITIONS FOR PREVENTING OR TREATING CHRONIC OBSTRUCTIVE PULMONARY DISEASES (COPD)” (Chong Kun Dang Pharmaceutical Corp., priority 2019, published 2023)

Experiments:
[1] = test system: A549 cells; experiment: Inhibitory effect on TGF-β1-induced EMT (E-Cad and N-Cad expression, Western blot); format: cell-based; conditions: 5 ng/mL TGF-β1, 48 hours, compared to Vhcl (TGF-β1), FIG. 5
Description: (§1) In order to confirm an effect of the compound according to the present invention on preventing or treating chronic obstructive pulmonary disease, an expression of an epithelial marker protein (E-Cad) and a mesenchymal marker protein (N-Cad) was analyzed. A549 cells were cultured in RPMI-1640 medium containing 10% fetal bovine serum (FBS) and 1% penicillin-streptomycin (P/S). The 1.5×10^5 cells were plated in a 6-well plate and incubated overnight. The cells were cultured with 5 ng/mL of recombinant human transforming growth factor beta 1 (TGF-β1) to induce an epithelial-to-mesenchymal transition (EMT). TGF-β1 was diluted with RPMI-1640 (1% FBS, 1% P/S) and incubated with the cells for 48 hours. The 500 µL of culture medium was loaded on a centrifugal filter (Amicon® Ultra-0.5 mL) and centrifuged at 14,000×g for 10 minutes. The enriched culture medium was boiled with 15 µL of 4X sample buffer at 100° C. for five minutes and analyzed by using the Western blot. The cells were lysed by using an RIPA buffer containing a protease inhibitor cocktail and a phosphatase inhibitor cocktail. A lysate was incubated on ice for three minutes and centrifuged at 13,000×g, 4° C. for 20 minutes. A supernatant was quantified by using a BCA protein assay kit and analyzed by the Western blot. The prepared sample was loaded on NuPAGE Novex 4-12% Bis-Tris gel and decomposed at 120 V Proteins were transferred to a nitrocellulose membrane by using an iBlot machine. The membrane was blocked by using EzBlock Chemi according to the manufacturer’s instructions. Antibodies such as E-cadherin (E-Cad), N-cadherin (N-cad), Fibronectin-EDA (FN-EDA), etc., were used. After reaction with a horseradish peroxidase (HRP)-conjugated secondary antibody, immunoreactive proteins were visualized by using Amersham® ECL select® Western blot detection reagent, and detected by ChemiDoc® MP imaging system. The intensity of the band was quantified with ImageJ software and normalized to β-actin.

[2] = test system: FN-EDA in A549 cells; experiment: FN-EDA protein reduction in TGF-β1-treated cells (Western blot); format: cell-based; conditions: 5 ng/mL TGF-β1, 48 hours, compared to Vhcl (TGF-β1), FIG. 6
Description: as §1
In order to confirm an effect of the compound according to the present invention on preventing or treating chronic obstructive pulmonary disease, an expression of FN-EDA, a key extracellular matrix (ECM) protein, was analyzed. The analysis was performed by the same method as described in Example 2 above.

[3] = test system: IL-6, IFN-γ, MCP-1, TNF-α; experiment: Expression of inflammatory cytokines in lung tissue by real-time PCR, smoking + Poly I:C COPD model; format: in vivo, C57BL/6 mouse; conditions: 30 mg/kg P.O. Q.D., compared with SM+no drug, FIG. 4
Source text: (§2) A C57BL/6 mouse (female, seven weeks old) was placed in a sealed smoking box and exposed to cigarette smoke for a certain period of time to induce COPD disease. Specifically, the mouse was put into the smoking box, after which a cigarette was lit and its filter was connected to a tube under a negative pressure, so that cigarette smoke could be continuously produced. Then, the smoking box was blocked, so that the mouse was forced to inhale the cigarette smoke while breathing in. The mouse was allowed to smoke for a total of four weeks. The mouse was exposed to one, two and four cigarettes once on the first, second and third days of the first week, respectively, and again exposed to four cigarettes twice and three times on the fourth and fifth days, respectively. After that, the mouse was exposed to four cigarettes three times a day for the remaining three weeks. Poly I:C (polyinosinic:polycytidylic acid) was administered into a nasal cavity of the anesthetized mouse twice a week in the third and fourth weeks during induction of smoking, so that a model of smoking + Poly I:C COPD (chronic obstructive pulmonary disease) was induced.
(§3) In order to confirm a drug administration effect of the compound according to the present invention, mice with induced COPD were divided into each group of six mice, and each of the groups was is classified as shown in a following table 1 according to an administered substance [vehicle (Veh), compound 374 (SM+1), or compound 458 (SM+2)], a route of administration [oral administration (P.O.)], and an administration interval [daily (Q.D.)].
In order to confirm an effect of the compound according to the present invention on preventing or treating chronic obstructive pulmonary disease, an expression of inflammatory cytokines in lung tissues was analyzed. Lungs were removed from mice of each group, after which RNA was isolated from the lung tissues. For each RNA, cDNA synthesis was performed by using a reverse transcriptase, after which an expression of inflammatory cytokine markers such as IL-6, IFN-y, MCP-1, and TNF-α was analyzed through real-time PCR, so as to compare a degree of induced inflammation among the groups. In this case, a sequence of a primer used in the experiment is the same as shown in a following table 2. (* P < 0.05, ** P < 0.01, and *** P < 0.001)

[4] = test system: mouse with induced COPD (smoking + Poly I:C); experiment: Analysis of bronchoalveolar lavage fluid (BAL fluid) cell counts, smoking + Poly I:C COPD model; format: in vivo, C57BL/6 mouse; conditions: 30 mg/kg P.O. Q.D.; compared with SM+no drug; FIG. 3
Source text: as §2, §3
In order to confirm an effect of the compound according to the present invention on preventing or treating chronic obstructive pulmonary disease, bronchoalveolar lavage fluid (BAL fluid) was analyzed. The 2 mL of the BAL fluid was separated from the mice of each group and centrifuged. After that, the resulting fluid was suspended in a phosphate buffer solution (PBS), after which the number of total cells was counted, and 2 × 10^5 cells were attached to a slide through a cytospin. After staining with a diff-quick stain kit, the resulting cells were classified into macrophage, neutrophil, etc. based on the properties of the stained cells, so as to count a total of 300 cells, after which a rate of respective cells was calculated with regard to the number of total cells to make a comparison among the groups.

[5] = test system: mouse with induced COPD (smoking + Poly I:C); experiment: Evaluation of immune cell infiltration in H&E-stained lung tissue sections, smoking + Poly I:C COPD model; format: in vivo, C57BL/6 mouse; conditions: 30 mg/kg P.O. Q.D.; compared to smoking + Poly I:C (SM+no drug); FIG. 2
Source text: as §2, with “Poly I:C (polyinosinic:polycytidylic acid) was administered into a nasal cavity of the anesthetized mouse twice a week in the third and fourth weeks during induction of smoking, so that a model of smoking + Poly I:C COPD (chronic obstructive pulmonary disease) was induced.” left out
In order to confirm an effect of the compound according to the present invention on preventing or treating chronic obstructive pulmonary disease, a degree of immune cell infiltration was evaluated. […] According to a reference image of FIG. 1, a degree of cellular infiltration was determined as a score of 0 to 3, and the score was measured by observing slides for each group [FIG. 1: 0-none, 1-mild, 2-moderate, and 3-severe].

SMILES	expression of E-Cad (epithelial marker protein) [1]	expression of N-Cad (mesenchymal marker protein) [1]	expression of key ECM protein FN-EDA [2]	expression of IFN-y in lung tissue [3]	expression of IL-6 in lung tissue [3]	expression of MCP-1 in lung tissue [3]	expression of TNF-α in lung tissue [3]	number of macrophages in BAL fluid [4]	number of neutrophils in BAL fluid [4]	number of total cells in BAL fluid [4]	cellular infiltration score (0 to 3) in lung tissue [5]
COc1cccc(N(Cc2ccc(C(=O)NO)cc2)C(=O)N2CCOCC2)c1 [Compound 484, N-(4-(Hydroxycarbamoyl)Benzyl)-N-(3-Methoxyphenyl)Morpholine-4-Carboxamide]	remarkable increase	remarkable decrease	remarkable decrease	–	–	–	–	–	–	–	–
O=C(NO)c1ccc(CN(C(=O)N2CCOCC2)c2ccc(F)c(Cl)c2)cc1 [SM+2, N-(3-chloro-4-fluorophenyl)-N-(4-(hydroxycarbamoyl)benzyl)morpholine-4-carboxamide]	–	–	–	decreased	decreased	decreased	decreased	decreased	decreased	decreased	decrease
O=C(NO)c1ccc(CN(C(=O)N2CCOCC2)c2cccc(C(F)(F)F)c2)cc1 [SM+1, N-(4-(hydroxycarbamoyl)benzyl)-N-(3-(trifluoromethyl)phenyl)morpholine-4-carboxamide]	–	–	–	decreased	decreased	decreased	decreased	decreased	decreased	decreased	decrease
O=C(NO)c1ccc(CN(C(=O)N2CCCOCC2)c2cccc(F)c2)cc1 [Compound 652]	remarkable increase	remarkable decrease	remarkable decrease	–	–	–	–	–	–	–	–
O=C(NO)c1ccc(CN(C(=O)N2CCOCC2)c2ccc(F)c(Cl)c2)cc1 [Compound 458, N-(3-chloro-4-fluorophenyl)-N-(4-(hydroxycarbamoyl)benzyl)morpholine-4-carboxamide]	remarkable increase	remarkable decrease	remarkable decrease	–	–	–	–	–	–	–	–
O=C(NO)c1ccc(CN(C(=O)N2CCOCC2)c2cccc(F)c2)cc1 [Compound 530]	remarkable increase	remarkable decrease	remarkable decrease	–	–	–	–	–	–	–	–
O=C(NO)c1ccc(CN(C(=O)N2CCOCC2)c2cccc(C(F)(F)F)c2)cc1 [Compound 374, N-(4-(hydroxycarbamoyl)benzyl)-N-(3-(trifluoromethyl)phenyl)morpholine-4-carboxamide]	remarkable increase	remarkable decrease	remarkable decrease	–	–	–	–	–	–	–	–
O=C(NO)c1ccc(CN(C(=O)N2CCOCC2)c2ccc(F)cc2F)cc1 [Compound 413, N-(2,4-difluorophenyl)-N-(4-(hydroxycarbamoyl)benzyl)morpholine-4-carboxamide]	remarkable increase	remarkable decrease	remarkable decrease	–	–	–	–	–	–	–	–
